This assay relates to human cervical tumor cell line HeLa (ATCC CCL-2). Kind of assay: SAC-Formation - Paclitaxel-Induced Assay. The following applies: Homo sapiens, HeLa, 24 h, HeLa cells, paclitaxel 0.05 μM, test range 0.005 μM-20 μM, read-out: IC50 [mol/l] SAC-Formation - Paclitaxel-Induced Assay. The assay is classed as cell-based. An outline of the steps:
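Read-out is high-content imaging of anti-phospho-H3 Ser10 (mitosis) and Hoechst 33342 (DNA, cell number), with decreased mitotic fraction marking checkpoint breakthrough. Compounds (0.005–20 μM) and 0.05 μM paclitaxel co-added to overnight-plated HeLa for 24 h at 37° C; four-parameter Hill fit.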
For `Cc1nsc(Nc2cnc(C(F)(F)F)cn2)c1C(=O)Nc1ccc(OCCNCCF)nc1` [Example 321, N-(6-{2-[(2-fluoroethyl)amino]ethoxy}pyridin-3-yl)-3-methyl-5-{[5-(trifluoromethyl)pyrazin-2-yl]amino}-1,2-thiazole-4-carboxamide], the IC50 was 1100 nM.
With `Cc1nsc(Nc2cc(C#N)ccn2)c1C(=O)Nc1ccc(OC2CCN(C(=O)OC(C)(C)C)CC2)nc1` [Example 23, tert-Butyl 4-({5-[({5-[(4-cyanopyridin-2-yl)amino]-3-methyl-1,2-thiazol-4-yl}-carbonyl)amino]pyridin-2-yl}oxy)piperidine-1-carboxylate], the IC50 worked out at 32 nM.
The figure for `Cc1nsc(Nc2cncc(C(F)(F)F)n2)c1C(=O)Nc1ccc(F)c(OC2CCN(CC(F)F)CC2)c1` [Example 268, N-(3-{[1-(2,2-difluoroethyl)piperidin-4-yl]oxy}-4-fluorophenyl)-3-methyl-5-{[6-(trifluoromethyl)pyrazin-2-yl]amino}-1,2-thiazole-4-carboxamide] is 110 nM; for `Cc1nsc(Nc2cnc(C(F)(F)F)cn2)c1C(=O)Nc1ccc(OCCO)nc1` [Example 277, N-[6-(2-hydroxyethoxy)pyridin-3-yl]-3-methyl-5-{[5-(trifluoromethyl)pyrazin-2-yl]amino}-1,2-thiazole-4-carboxamide] it is 10000 nM; for `Cc1nsc(Nc2cc(C#N)ccn2)c1C(=O)Nc1ccc(OC2CCN(CC(F)(F)F)CC2)nc1` [Example 25, 5-[(4-Cyanopyridin-2-yl)amino]-3-methyl-N-(6-{[1-(2,2,2-trifluoroethyl)piperidin-4-yl]oxy}pyridin-3-yl)-1,2-thiazole-4-carboxamide] it is 66 nM.
For the compound `Cc1nsc(Nc2cc(C#N)ccn2)c1C(=O)Nc1ccc(OC2CCN(CC(F)F)CC2)nc1` [Example 263, 5-[(4-cyanopyridin-2-yl)amino]-N-(6-{[1-(2,2-difluoroethyl)piperidin-4-yl]oxy}pyridin-3-yl)-3-methyl-1,2-thiazole-4-carboxamide], the IC50 came out at 3500 nM.
The figure for `Cc1nsc(Nc2cnc(C(F)(F)F)cn2)c1C(=O)Nc1ccc(F)c(OCC2CCN(CC(F)(F)F)CC2)c1` [Example 310, N-(4-fluoro-3-{[1-(2,2,2-trifluoroethyl)piperidin-4-yl]methoxy}phenyl)-3-methyl-5-{[5-(trifluoromethyl)pyrazin-2-yl]amino}-1,2-thiazole-4-carboxamide] is 49 nM; for `Cc1nsc(Nc2cnc(C(F)(F)F)cn2)c1C(=O)Nc1ccc(F)c(OCC2CCN(CCC(F)(F)F)CC2)c1` [Example 311, N-(4-fluoro-3-{[1-(3,3,3-trifluoropropyl)piperidin-4-yl]methoxy}phenyl)-3-methyl-5-{[5-(trifluoromethyl)pyrazin-2-yl]amino}-1,2-thiazole-4-carboxamide] it is 480 nM; for `Cc1nsc(Nc2cnc(C(F)(F)F)cn2)c1C(=O)Nc1ccc(OC2CCN(CC(F)(F)F)C2)nc1` (stereo not shown) [Example 297, 3-methyl-N-(6-{[1-(2,2,2-trifluoroethyl)pyrrolidin-3-yl]oxy}pyridin-3-yl)-5-{[5-(trifluoromethyl)pyrazin-2-yl]amino}-1,2-thiazole-4-carboxamide] it is 56 nM.
On to `Cc1nsc(Nc2cnc(C(F)(F)F)cn2)c1C(=O)Nc1ccc(F)c(OC2CCN(CC(F)F)C2)c1` (stereo not shown) [Example 314, N-(3-{[1-(2,2-difluoroethyl)pyrrolidin-3-yl]oxy}-4-fluorophenyl)-3-methyl-5-{[5-(trifluoromethyl)pyrazin-2-yl]amino}-1,2-thiazole-4-carboxamide], for which the IC50 was 78 nM.
The value for `Cc1nsc(Nc2cnc3ccccc3n2)c1C(=O)Nc1cccc(NS(=O)(=O)C2CCN(CC(F)(F)F)C2)c1` (stereo not shown) [Example 289, 3-methyl-5-(quinoxalin-2-ylamino)-N-[3-({[1-(2,2,2-trifluoroethyl)pyrrolidin-3-yl]sulfonyl}amino)phenyl]-1,2-thiazole-4-carboxamide] was 3300 nM; that for `Cc1nsc(Nc2cncc(C(F)(F)F)n2)c1C(=O)Nc1ccc(F)c(OC2CCN(CCF)CC2)c1` [Example 269, N-(4-fluoro-3-{[1-(2-fluoroethyl)piperidin-4-yl]oxy}phenyl)-3-methyl-5-{[6-(trifluoromethyl)pyrazin-2-yl]amino}-1,2-thiazole-4-carboxamide] was 210 nM; that for `Cc1nsc(Nc2cnc(C(F)(F)F)cn2)c1C(=O)Nc1ccc(N(C)C)c(OCCCN(C)CC(F)(F)F)c1` [Example 299, N-[4-(dimethylamino)-3-{3-[methyl(2,2,2-trifluoroethyl)amino]propoxy}phenyl]-3-methyl-5-{[5-(trifluoromethyl)pyrazin-2-yl]amino}-1,2-thiazole-4-carboxamide] was 190 nM.
The figure for `Cc1nsc(Nc2cncc(C(F)(F)F)n2)c1C(=O)Nc1ccc(OC2CCN(CCC(F)(F)F)CC2)nc1` [Example 304, 3-methyl-5-{[6-(trifluoromethyl)pyrazin-2-yl]amino}-N-(6-{[1-(3,3,3-trifluoropropyl)piperidin-4-yl]oxy}pyridin-3-yl)-1,2-thiazole-4-carboxamide] is 90 nM; for `Cc1nsc(Nc2cnc(C(F)(F)F)cn2)c1C(=O)Nc1ccc(F)c(OC2CCN(CC(F)F)CC2)c1` [Example 265, N-(3-{[1-(2,2-difluoroethyl)piperidin-4-yl]oxy}-4-fluorophenyl)-3-methyl-5-{[5-(trifluoromethyl)pyrazin-2-yl]amino}-1,2-thiazole-4-carboxamide] it is 150 nM.
In the case of `Cc1nsc(Nc2cnc(C(F)(F)F)cn2)c1C(=O)Nc1ccc(OCCNCC(F)F)nc1` [Example 305, N-(6-{2-[(2,2-difluoroethyl)amino]ethoxy}pyridin-3-yl)-3-methyl-5-{[5-(trifluoromethyl)pyrazin-2-yl]amino}-1,2-thiazole-4-carboxamide], the IC50 was determined as 220 nM.
The value for `Cc1nsc(Nc2cncc(C(F)(F)F)n2)c1C(=O)Nc1ccc(OCCO)nc1` [Example 276, N-[6-(2-hydroxyethoxy)pyridin-3-yl]-3-methyl-5-{[6-(trifluoromethyl)pyrazin-2-yl]amino}-1,2-thiazole-4-carboxamide] was 1900 nM; that for `CCN1CCN(C(=O)c2ccc(NC(=O)c3c(C)nsc3Nc3cnc(C(F)(F)F)cn3)cc2)CC1` [Example 261, N-{4-[(4-ethylpiperazin-1-yl)carbonyl]phenyl}-3-methyl-5-{[5-(trifluoromethyl)pyrazin-2-yl]amino}-1,2-thiazole-4-carboxamide] was 2900 nM; that for `Cc1nsc(Nc2ccc(C#N)cn2)c1C(=O)Nc1cccc(C(=O)NC(C)C)c1` [Example 255, 5-[(5-cyanopyridin-2-yl)amino]-N-[3-(isopropylcarbamoyl)phenyl]-3-methyl-1,2-thiazole-4-carboxamide] was 10000 nM.
The figure for `Cc1nsc(Nc2cnc(C(F)(F)F)cn2)c1C(=O)Nc1ccc(C(=O)NC2CCN(CC(F)F)CC2)cc1` [Example 259, N-(4-{[1-(2,2-difluoroethyl)piperidin-4-yl]carbamoyl}phenyl)-3-methyl-5-{[5-(trifluoromethyl)pyrazin-2-yl]amino}-1,2-thiazole-4-carboxamide] is 4400 nM; for `COC(=O)CCc1cccc(NC(=O)c2c(C)nsc2Nc2cnc3ccccc3n2)c1` [Example 257, methyl 3-[3-({[3-methyl-5-(quinoxalin-2-ylamino)-1,2-thiazol-4-yl]carbonyl}amino)phenyl]propanoate] it is 2700 nM.
The value for `Cc1nsc(Nc2cnc(C(F)(F)F)cn2)c1C(=O)Nc1ccc(C(=O)NC2CN(CC(F)F)C2)cc1` [Example 271, N-(4-{[1-(2,2-difluoroethyl)azetidin-3-yl]carbamoyl}phenyl)-3-methyl-5-{[5-(trifluoromethyl)pyrazin-2-yl]amino}-1,2-thiazole-4-carboxamide] was 2100 nM; that for `Cc1nsc(Nc2cnc3ccccc3n2)c1C(=O)Nc1cccc(NS(=O)(=O)C2CN(CC(F)(F)F)C2)c1` [Example 285, 3-methyl-5-(quinoxalin-2-ylamino)-N-[3-({[1-(2,2,2-trifluoroethyl)azetidin-3-yl]sulfonyl}amino)phenyl]-1,2-thiazole-4-carboxamide] was 6100 nM.
As for `Cc1nsc(Nc2cnc(C(F)(F)F)cn2)c1C(=O)Nc1ccc(C(=O)N2CCN(CC(F)(F)F)CC2)cc1` [Example 260, 3-methyl-N-(4-{[4-(2,2,2-trifluoroethyl)piperazin-1-yl]carbonyl}phenyl)-5-{[5-(trifluoromethyl)pyrazin-2-yl]amino}-1,2-thiazole-4-carboxamide], the IC50 came out at 400 nM.
Consider `Cc1nsc(Nc2cnc3ccccc3n2)c1C(=O)Nc1cccc(NS(=O)(=O)C2CCN(CCC(F)(F)F)CC2)c1` [Example 283, 3-methyl-5-(quinoxalin-2-ylamino)-N-[3-({[1-(3,3,3-trifluoropropyl)piperidin-4-yl]sulfonyl}amino)phenyl]-1,2-thiazole-4-carboxamide], for which the IC50 turned out to be 7100 nM.
In the case of `Cc1nsc(Nc2cnc(C(F)(F)F)cn2)c1C(=O)Nc1ccc(C(=O)N2CCN(C)CC2)cc1` [Example 262, 3-methyl-N-{4-[(4-methylpiperazin-1 yl)carbonyl]phenyl}-5-{[5-(trifluoromethyl)pyrazin-2-yl]amino}-1,2-thiazole-4-carboxamide], the IC50 came to 4800 nM.
The figure for `Cc1nsc(Nc2cnc(C(F)(F)F)cn2)c1C(=O)Nc1ccc(F)c(OC2CCN(CC(F)(F)F)CC2)c1` [Example 264, N-(4-fluoro-3-{[1-(2,2,2-trifluoroethyl)piperidin-4-yl]oxy}phenyl)-3-methyl-5-{[5-(trifluoromethyl)pyrazin-2-yl]amino}-1,2-thiazole-4-carboxamide] is 72 nM; for `Cc1nsc(Nc2cnc(C(F)(F)F)cn2)c1C(=O)Nc1ccc(OCCNCC(F)(F)F)nc1` [Example 322, 3-methyl-N-(6-{2-[(2,2,2-trifluoroethyl)amino]ethoxy}pyridin-3-yl)-5-{[5-(trifluoromethyl)pyrazin-2-yl]amino}-1,2-thiazole-4-carboxamide] it is 150 nM.

Values taken from patent US20170334899A1, “AMINO-SUBSTITUTED ISOTHIAZOLES” (Bayer Pharma Aktiengesellschaft, priority 2014, published 2017).
